Experimental data taken from patent US6465483B1, “Annelated dihydropyridines and the use thereof for preparing pharmaceutical preparations” (Boehringer Ingelheim GmbH, priority 1993, dated 2002).

Assays:
[1] = test system: unselective cation channels (UCC); test: Inhibition of Ca2+ entry through unselective cation channels after Thapsigargin stimulation, fura-2-charged RBL-hm 1 cells; format: cell-based, rat; conditions: Table 5, 0.1 μM Thapsigargin, test substance 10^−5 M
Experimental: For screening purposes, fura-2-charged adhesive RBL-hm 1 cells are stimulated with 0.1 μM Thapsigargin in a Ca^2+-free incubation medium. After 4 minutes, extracellular Ca^2+ is restored to a concentration of 1.5 mM and, using the fura-2-fluorescence, the excessive increase in the cytoplasmic Ca^2+-concentration caused by a massive transmembranal Ca^2+-entry through unselective cation channels is recorded.
The kinetics of the cytoplasmic Ca^2+-concentration is recorded continuously as a concentration/time curve after the cell activation stimulated by Thapsigargin (0.1 μM). The curves of two activated cell cultures are compared in the presence and absence of 10 μM test substance. The area under these curves (area under the curve=AUC) is integrated and recorded as a measurement of cell activation. The inhibitory potency of the UCC-blockers tested is determined using the following equation: [formula]
AUCinh area under the curve recorded in the presence of the stimulant plus 10 μM inhibitory test substance.
AUC control=area under the curve which is recorded only after the addition of the stimulant.
The uniform concentration of the test substances is 10^−5 mol or 10^−6 mol)

RBL-2H3-cells = test: Antigen (DNP-BSA)-induced activation of sensitised RBL-2H3-cells, fluorometric cytoplasmic calcium measurement; format: cell-based, rat; conditions: 10 μM
Experimental: Individual RBL-2H3-cells (a tumour cell line related to the mast cells) adhering to glass slides are used.
The cultivation and attachment of the RBL-2H3-cells are carried out by the method described by HIDE and BEAVEN (1991). In order to sensitise the adhesive RBL-2H3-cells the cells are incubated for 2 hours at ambient temperature with a 1:2000 diluted commercial gammaglobulin E-solution against a dinitrophenol-bovine serum albumin complex (DNP-BSA-antigen). The cells are then washed. By the addition of 0.1 ml of DNP-BSA-solution (10 μg/ml) there is a massive immunological cell activation which is mediated by a cytoplasmic Ca^2+-overload. The fluorometric calcium measurement in the cytoplasm of individual adhering RBL-2H3-cells is carried out analogously to the method described by KUDO and OGURA (1986) for neuronal cells, which is also explained hereinbefore in this specification.
The comparison used in these investigations is (10 μM) chromoglycate which brings about an approximately 50% inhibition of the antigen-induced cell activation.

Structure (SMILES)	% H (10^−5 M), percentage inhibition of UCC after Thapsigargin stimulation [1]	inhibition of the antigen-induced cell activation (RBL-2H3-cells)
COc1cc2c(cc1OC)C(C(C(=O)N(Cc1ccccc1)Cc1ccccc1)c1ccsc1)=NCC2 (racemic) [(R,S)-(3,4-Dihydro-6,7-dimethoxyisoquinolin-1-yl)-2-(3-thienyl)-N,N-dibenzyl-acetamide]	90.9%	–
O=C(O)c1cc(=O)c2c(OCC(O)COc3cccc4oc(C(=O)O)cc(=O)c34)cccc2o1 [chromoglycate]	–	approximately 50%
